Legend:
Assay in all cases: relative viability (nuclei count vs DMSO), 5 days (fraction); higher = more cells survive
NCI-H1793 = system: NCI-H1793
Outline: (§1)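 Dosing by pin tool came one day after lung cancer cell lines were seeded in 1536-well plates, using either one drug or a fixed anchor-drug dose plus five library-drug doses (not always all listed) in √10 steps. After 5 days, nuclei were counted on 4× images. Relative viability is treated-well nuclei count divided by vehicle-well nuclei count, and values are medians of duplicate plates.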

NCI-H1395 = system: NCI-H1395
Outline: as §1

NCI-H2085 = system: NCI-H2085
Outline: as §1

NCI-H2023 = system: NCI-H2023
Outline: as §1

H3255 = system: H3255
Outline: as §1

EPLC-272H = system: EPLC-272H
Outline: as §1

NCI-H650 = system: NCI-H650
Outline: as §1

NCI-H1651 = system: NCI-H1651
Outline: as §1

LU99A = system: LU99A
Outline: as §1

NCI-H2087 = system: NCI-H2087
Outline: as §1

LCLC-103H = system: LCLC-103H
Outline: as §1

NCI-H1944 = system: NCI-H1944
Outline: as §1

SK-MES-1 = system: SK-MES-1
Outline: as §1

HCC-44 = system: HCC-44
Outline: as §1

NCI-H2405 = system: NCI-H2405
Outline: as §1

EMC-BAC-2 = system: EMC-BAC-2
Outline: as §1

NCI-H838 = system: NCI-H838
Outline: as §1

ChaGo-K-1 = system: ChaGo-K-1
Outline: as §1

NCI-H520 = system: NCI-H520
Outline: as §1

COR-L23 = system: COR-L23
Outline: as §1

HCC-827 = system: HCC-827
Outline: as §1

SMILES: Nc1ccn([C@@H]2O[C@H](CO)[C@@H](O)[C@@H]2O)c(=O)n1 [Cytarabine] + Nc1ncn([C@H]2C[C@H](O)[C@@H](CO)O2)c(=O)n1 [Decitabine] (partner 2 µM)
- relative viability (NCI-H1793; first compound 0.005 µM): 0.585
- relative viability (NCI-H1793; first compound 0.01581 µM): 0.35
- relative viability (NCI-H1793; first compound 0.05 µM): 0.336
- relative viability (NCI-H1793; first compound 0.1581 µM): 0.212
- relative viability (NCI-H1793; first compound 0.5 µM): 0.237
- relative viability (NCI-H1395; first compound 0.005 µM): 0.634
- relative viability (NCI-H1395; first compound 0.01581 µM): 0.688
- relative viability (NCI-H1395; first compound 0.05 µM): 0.529
- relative viability (NCI-H1395; first compound 0.1581 µM): 0.368
- relative viability (NCI-H1395; first compound 0.5 µM): 0.364
- relative viability (NCI-H2085; first compound 0.005 µM): 0.491
- relative viability (NCI-H2085; first compound 0.01581 µM): 0.512
- relative viability (NCI-H2085; first compound 0.05 µM): 0.518
- relative viability (NCI-H2085; first compound 0.1581 µM): 0.483
- relative viability (NCI-H2085; first compound 0.5 µM): 0.559
- relative viability (NCI-H2023; first compound 0.005 µM): 0.169
- relative viability (NCI-H2023; first compound 0.01581 µM): 0.116
- relative viability (NCI-H2023; first compound 0.05 µM): 0.114
- relative viability (NCI-H2023; first compound 0.1581 µM): 0.0751
- relative viability (NCI-H2023; first compound 0.5 µM): 0.0656
- relative viability (H3255; first compound 0.005 µM): 0.732
- relative viability (H3255; first compound 0.01581 µM): 0.555
- relative viability (H3255; first compound 0.05 µM): 0.637
- relative viability (H3255; first compound 0.1581 µM): 0.588
- relative viability (H3255; first compound 0.5 µM): 0.375
- relative viability (EPLC-272H; first compound 0.005 µM): 0.403
- relative viability (EPLC-272H; first compound 0.01581 µM): 0.358
- relative viability (EPLC-272H; first compound 0.05 µM): 0.346
- relative viability (EPLC-272H; first compound 0.1581 µM): 0.224
- relative viability (EPLC-272H; first compound 0.5 µM): 0.247
- relative viability (NCI-H650; first compound 0.005 µM): 0.326
- relative viability (NCI-H650; first compound 0.01581 µM): 0.255
- relative viability (NCI-H650; first compound 0.05 µM): 0.247
- relative viability (NCI-H650; first compound 0.1581 µM): 0.152
- relative viability (NCI-H650; first compound 0.5 µM): 0.152
- relative viability (NCI-H1651; first compound 0.005 µM): 0.646
- relative viability (NCI-H1651; first compound 0.01581 µM): 0.493
- relative viability (NCI-H1651; first compound 0.05 µM): 0.167
- relative viability (NCI-H1651; first compound 0.1581 µM): 0.281
- relative viability (NCI-H1651; first compound 0.5 µM): 0.213
- relative viability (LU99A; first compound 0.005 µM): 0.863
- relative viability (LU99A; first compound 0.01581 µM): 0.781
- relative viability (LU99A; first compound 0.05 µM): 0.93
- relative viability (LU99A; first compound 0.1581 µM): 0.925
- relative viability (LU99A; first compound 0.5 µM): 0.823
- relative viability (NCI-H2087; first compound 0.005 µM): 0.316
- relative viability (NCI-H2087; first compound 0.01581 µM): 0.225
- relative viability (NCI-H2087; first compound 0.05 µM): 0.303
- relative viability (NCI-H2087; first compound 0.1581 µM): 0.109
- relative viability (NCI-H2087; first compound 0.5 µM): 0.133
- relative viability (LCLC-103H; first compound 0.005 µM): 0.71
- relative viability (LCLC-103H; first compound 0.01581 µM): 0.734
- relative viability (LCLC-103H; first compound 0.05 µM): 0.73
- relative viability (LCLC-103H; first compound 0.1581 µM): 0.751
- relative viability (LCLC-103H; first compound 0.5 µM): 0.724
- relative viability (NCI-H1944; first compound 0.005 µM): 0.335
- relative viability (NCI-H1944; first compound 0.01581 µM): 0.347
- relative viability (NCI-H1944; first compound 0.05 µM): 0.319
- relative viability (NCI-H1944; first compound 0.1581 µM): 0.194
- relative viability (NCI-H1944; first compound 0.5 µM): 0.151
- relative viability (SK-MES-1; first compound 0.005 µM): 0.29
- relative viability (SK-MES-1; first compound 0.01581 µM): 0.211
- relative viability (SK-MES-1; first compound 0.05 µM): 0.205
- relative viability (SK-MES-1; first compound 0.1581 µM): 0.183
- relative viability (SK-MES-1; first compound 0.5 µM): 0.155
- relative viability (HCC-44; first compound 0.005 µM): 1.04
- relative viability (HCC-44; first compound 0.01581 µM): 0.941
- relative viability (HCC-44; first compound 0.05 µM): 0.87
- relative viability (HCC-44; first compound 0.1581 µM): 0.748
- relative viability (HCC-44; first compound 0.5 µM): 0.737
- relative viability (NCI-H2405; first compound 0.005 µM): 0.666
- relative viability (NCI-H2405; first compound 0.01581 µM): 0.569
- relative viability (NCI-H2405; first compound 0.05 µM): 0.503
- relative viability (NCI-H2405; first compound 0.1581 µM): 0.342
- relative viability (NCI-H2405; first compound 0.5 µM): 0.321
- relative viability (EMC-BAC-2; first compound 0.005 µM): 0.943
- relative viability (EMC-BAC-2; first compound 0.01581 µM): 0.836
- relative viability (EMC-BAC-2; first compound 0.05 µM): 0.597
- relative viability (EMC-BAC-2; first compound 0.1581 µM): 0.315
- relative viability (EMC-BAC-2; first compound 0.5 µM): 0.332
- relative viability (NCI-H838; first compound 0.005 µM): 0.476
- relative viability (NCI-H838; first compound 0.01581 µM): 0.407
- relative viability (NCI-H838; first compound 0.05 µM): 0.427
- relative viability (NCI-H838; first compound 0.1581 µM): 0.311
- relative viability (NCI-H838; first compound 0.5 µM): 0.274
- relative viability (ChaGo-K-1; first compound 0.005 µM): 0.475
- relative viability (ChaGo-K-1; first compound 0.01581 µM): 0.413
- relative viability (ChaGo-K-1; first compound 0.05 µM): 0.339
- relative viability (ChaGo-K-1; first compound 0.1581 µM): 0.252
- relative viability (ChaGo-K-1; first compound 0.5 µM): 0.225
- relative viability (NCI-H520; first compound 0.005 µM): 0.48
- relative viability (NCI-H520; first compound 0.01581 µM): 0.564
- relative viability (NCI-H520; first compound 0.05 µM): 0.53
- relative viability (NCI-H520; first compound 0.1581 µM): 0.343
- relative viability (NCI-H520; first compound 0.5 µM): 0.349
- relative viability (COR-L23; first compound 0.005 µM): 0.43
- relative viability (COR-L23; first compound 0.01581 µM): 0.377
- relative viability (COR-L23; first compound 0.05 µM): 0.341
- relative viability (COR-L23; first compound 0.1581 µM): 0.205
- relative viability (COR-L23; first compound 0.5 µM): 0.156
- relative viability (HCC-827; first compound 0.005 µM): 0.232
- relative viability (HCC-827; first compound 0.01581 µM): 0.239
- relative viability (HCC-827; first compound 0.05 µM): 0.182
- relative viability (HCC-827; first compound 0.1581 µM): 0.152
- relative viability (HCC-827; first compound 0.5 µM): 0.167
